Test: In vitro hydrolysis of functionalized phenolics in pH 7.4 buffer at reflux
Type: physicochemical
Settings: 500 mg compound in 50 mL pH 7.4 buffer, reflux temperature (100° C.), monitored by TLC
Procedure: In Vitro Hydrolysis of Functionalized Phenolics
A few selected compounds were examined for the rate of hydrolysis by conducting in vitro hydrolysis studies at reflux temperature (100° C.). For each experiment, 500 mg of a functionalized compound and 50 mL of pH 7.4 buffer solution (purchased from Aldrich chemical company) were charged into a 100 mL round bottom flask fitted with a condenser and the contents were refluxed. In vitro hydrolysis of the functionalized phenolic was monitored by thin layer chromatography (TLC) using corresponding starting material (original amino acid) as a control. In vitro hydrolysis was continued at reflux until the functionalized molecule hydrolyzed to the starting compound.

| Structure (SMILES) | time in which the functionalized compound was hydrolyzed to the starting compound |
| --- | --- |
| COC(=O)COC(=O)COc1ccc(C(=O)OCC(=O)OC)cc1 [Example 77, 4-Methoxycarbonylmethoxycarbonylmethoxy-benzoic acid methoxycarbonyl methyl ester] | 26.5 h |
| COC(=O)COC(=O)c1ccc(OCC(=O)OC)cc1 [Example 78, 4-Methoxycarbonylmethoxy-benzoic acid methoxycarbonylmethyl ester] | 33.0 h |
| COC(=O)COC(=O)c1ccccc1OCC(=O)OC [Example 79, 2-Methoxycarbonylmethoxy-benzoic acid methoxycarbonylmethyl ester] | eight |
| COC(=O)COC(=O)COc1ccccc1C(=O)OCC(=O)OC [Example 81, 2-Methoxycarbonylmethoxycarbonylmethoxy-benzoic acid methoxycarbonyl methyl ester] | two |
| COC(=O)C(C)OC(=O)COc1ccc(OCC(=O)OC(C)C(=O)OC)cc1 (stereo not shown) [Example 85, 2-{2-[4-(1-Methoxycarbonyl-ethoxycarbonylmethoxy)-phenoxy]-acetoxy}-propionic acid methyl ester] | two |

Now from value to compound:

| time in which the functionalized compound was hydrolyzed to the starting compound | Structure (SMILES) |
| --- | --- |
| one | COC(=O)COC(=O)COc1ccc(OCC(=O)OCC(=O)OC)cc1 [Example 84, (4-Methoxycarbonylmethoxycarbonylmethoxy-phenoxy)-acetic acid methoxycarbonyl methyl ester] |
| four | COC(=O)COC(=O)COc1ccc2cc(C(C)C(=O)OCC(=O)OC)ccc2c1 (stereo not shown) [Example 90, 2-(6-Methoxycarbonylmethoxycarbonylmethoxy-naphthalen-2-yl)-propionic acid Methoxy Carbonylmethyl ester] |
| four | COC(=O)COC(=O)C(C)c1ccc2cc(OCC(=O)OC)ccc2c1 (stereo not shown) [Example 92, 2-(6-Methoxycarbonylmethoxy-naphthalen-2-yl)-propionic acid Methoxy Carbonyl methyl ester] |
| three | COC(=O)COC(=O)COc1ccc(N)cc1 [Example 96, (4-Amino-phenoxy)-acetic acid methoxycarbonylmethyl ester] |
| ten | COC(=O)COC(=O)COc1ccc(-c2coc3cc(OCC(=O)OCC(=O)OC)ccc3c2=O)cc1 [Example 98, [4-(7-Methoxycarbonylmethoxycarbonylmethoxy-4-oxo-4H-chromen-3-yl)-phenoxy]-acetic acid methoxycarbonylmethyl ester] |

From patent US8318973B2, “Functionalized sinapic acid and methyl sinapate” (Bezwada Biomedical, LLC, priority 2005, dated 2012)
